From ChEMBL document CHEMBL4393664, “2,4-Disubstituted quinazolines targeting breast cancer cells via EGFR-PI3K” (Eur J Med Chem, 2019)

How the values were obtained:
[1] = test system: MDA-MB-231; experiment: Cell cycle arrest in human MDA-MB-231 cells assessed as accumulation at G1 phase at 3 uM after 24 hrs by propidium iodide/RNase A staining-based flow cytometric analysis (reference value: 49.17%); type: functional
[2] = test system: MDA-MB-231; experiment: Cell cycle arrest in human MDA-MB-231 cells assessed as accumulation at S phase at 12 uM after 24 hrs by propidium iodide/RNase A staining-based flow cytometric analysis (reference value: 23.07%); type: functional
[3] = test system: MCF7; experiment: Cell cycle arrest in human MCF7 cells assessed as accumulation at G1 phase at 12 uM after 24 hrs by propidium iodide/RNase A staining-based flow cytometric analysis (reference value: 52.21%); type: functional
[4] = test system: MDA-MB-231; experiment: Induction of apoptosis in human MDA-MB-231 cells assessed as viable cells at 2 uM after 48 hrs by Annexin-V-FITC/propidium iodide staining based flow cytometry (reference value: 92.1%); type: functional; conditions: MDA-MB-231, 48 h, read-out: Activity
[5] = test system: MDA-MB-231; experiment: Induction of apoptosis in human MDA-MB-231 cells assessed as late apoptotic cells at 4 uM after 48 hrs by Annexin-V-FITC/propidium iodide staining based flow cytometry (reference value: 2.38%); type: functional
[6] = test system: MCF7; experiment: Induction of apoptosis in human MCF7 cells assessed as necrotic cells at 4 uM after 48 hrs by Annexin-V-FITC/propidium iodide staining based flow cytometry (reference value: 1.57%); type: functional
[7] = test system: MDA-MB-231; experiment: Induction of apoptosis in human MDA-MB-231 cells after 48 hrs by Annexin-V-FITC/propidium iodide staining based flow cytometry; type: functional, cell-based
[8] = test system: MDA-MB-231; experiment: Effect on total EGFR protein level in human MDA-MB-231 cells up to 12 uM after 8 hrs by Western blot analysis; type: ADME, cell-based; conditions: mda-mb-231, 8 h
[9] = molecular target: Epidermal growth factor receptor (Homo sapiens) (UniProt P00533); experiment: Inhibition of EGFR phosphorylation at Y1068 residues in human MDA-MB-231 cells after 8 hrs by Western blot analysis; type: cell-based
Sequence of Epidermal growth factor receptor (Homo sapiens) (P00533 whole entry): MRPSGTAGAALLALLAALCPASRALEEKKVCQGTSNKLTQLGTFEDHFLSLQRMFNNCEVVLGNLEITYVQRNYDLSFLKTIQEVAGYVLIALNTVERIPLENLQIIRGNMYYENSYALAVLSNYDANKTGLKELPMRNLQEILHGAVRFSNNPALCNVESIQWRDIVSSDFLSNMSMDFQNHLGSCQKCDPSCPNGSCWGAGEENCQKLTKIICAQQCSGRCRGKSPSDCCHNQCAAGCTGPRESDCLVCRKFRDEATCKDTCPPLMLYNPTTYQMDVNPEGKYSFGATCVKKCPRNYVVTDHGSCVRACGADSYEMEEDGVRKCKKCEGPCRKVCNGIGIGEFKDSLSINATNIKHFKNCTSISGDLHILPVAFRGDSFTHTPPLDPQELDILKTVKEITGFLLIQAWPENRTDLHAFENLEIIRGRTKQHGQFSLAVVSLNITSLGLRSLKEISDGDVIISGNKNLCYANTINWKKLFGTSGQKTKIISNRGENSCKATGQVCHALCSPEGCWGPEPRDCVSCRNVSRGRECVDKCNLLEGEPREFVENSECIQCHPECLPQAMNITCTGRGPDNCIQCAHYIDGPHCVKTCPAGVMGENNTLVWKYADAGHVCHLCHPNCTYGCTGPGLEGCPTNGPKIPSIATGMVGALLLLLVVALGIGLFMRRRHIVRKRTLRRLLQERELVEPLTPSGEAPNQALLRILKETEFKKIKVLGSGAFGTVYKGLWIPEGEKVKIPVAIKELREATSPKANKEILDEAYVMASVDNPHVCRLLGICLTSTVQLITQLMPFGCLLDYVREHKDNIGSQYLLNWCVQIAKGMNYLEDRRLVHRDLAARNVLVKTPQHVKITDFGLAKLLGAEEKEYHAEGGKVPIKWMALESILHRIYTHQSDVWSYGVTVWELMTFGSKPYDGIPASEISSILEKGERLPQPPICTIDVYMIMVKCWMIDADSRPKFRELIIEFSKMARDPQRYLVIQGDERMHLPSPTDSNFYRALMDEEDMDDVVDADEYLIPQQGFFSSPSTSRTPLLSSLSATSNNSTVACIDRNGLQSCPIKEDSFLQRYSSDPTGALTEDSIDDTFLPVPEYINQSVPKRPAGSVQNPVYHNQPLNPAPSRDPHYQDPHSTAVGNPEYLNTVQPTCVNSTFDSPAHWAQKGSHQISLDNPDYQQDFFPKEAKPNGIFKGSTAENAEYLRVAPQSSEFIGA

FC(F)(F)c1ccc(CSc2nc(Nc3ccc(C(F)(F)F)cc3)c3ccccc3n2)cc1
Activity [1]: 53%
Activity [2]: 18.77%
Activity [3]: 75.03%
viability at 2 µM [4]: 82.9%
Activity [5]: 15.3%
Activity [6]: 1.28%
Activity [7]: Dose-dependent effect
Activity [8]: Non-Toxic
inhibition [9]: Dose-dependent effect
